In patent US9663439B2, “Aildenafil citrate crystal form O, preparation method and use thereof” (priority 2010, dated 2017):
Counter-ions that a name gives are not always drawn.

Experiments:
castrated mice = assay: Determination for sexual function of castrated mice; type: in vivo, Kunming strain mouse; conditions: 15 mg/kg^−1, ig, 60 min after feeding the drug
Excerpt: Pharmacodynamic study: determination for sexual function of castrated mice 60 Kunming strain mouse (feeding 60 mouse with 18 g to 22 g weight in the same period) are randomly divided into 6 groups, each 10 mouse per group, wherein, 5 groups of mouse are implemented with bilateral orchidectomy under ether anesthesia state to have castration treatment, and the rest one group of mouse are only implemented with surgical separation, without removing the testicles, which can be taken as a sham operation control group. Each group of mouse are fed in cage, and are tested after 3 d. The sham operation control group and the model control group are fed with 0.5% CMC, […] crystal form O, the positive control group is fed with 6 mg·kg^−1 of Sildenafil; all are ig delivery modes, and the dose volumes are all 10 ml·kg^−1. Putting the single male mice in the cage 60 min after feeding the drug, and adding one female mice in each cage, recording the time that the male mice firstly catches the female mice since the female mice is put in the cage (namely, the capture incubation period), and recording the back-climbing times of the male mice within 30 min.

[1] = Influencing factor test (high temperature, high humidity, illumination); type: physicochemical
[2] = High-temperature test (first line; 60+/−2° C.), 0 month
[3] = High-temperature test (first line; 60+/−2° C.), 0.5 month
[4] = High-temperature test (first line; 60+/−2° C.), 1 month
[5] = High-temperature test (second line so named), 0 month
[6] = High-temperature test (second line so named), 0.5 month
[7] = High-temperature test (second line so named), 1 month
[8] = Illumination test (4500 lx+/−500 lx), 0 month
[9] = Illumination test (4500 lx+/−500 lx), 0.5 month
[10] = Illumination test (4500 lx+/−500 lx), 1 month
[11] = high light (4500 lx+/−500 lx), high temperature (60+/−2° C.), high humidity (RH 92.5%), 0 to 1 month

Appearance [1, 2]: White
Contents (HPLC area normalization method) [1, 2]: 99.96%
Related articles [1, 2]: 0.04%
Appearance [1, 3]: White
Contents (HPLC area normalization method) [1, 3]: 99.96%
Infrared absorption spectrum [1, 3]: Unchanged
PXRD [1, 3]: Unchanged
Related articles [1, 3]: 0.04%
Appearance [1, 4]: White
Contents (HPLC area normalization method) [1, 4]: 99.95%
Infrared absorption spectrum [1, 4]: Unchanged
PXRD [1, 4]: Unchanged
Related articles [1, 4]: 0.04%
Appearance [1, 5]: White
Contents (HPLC area normalization method) [1, 5]: 99.96%
Related articles [1, 5]: 0.04%
Appearance [1, 6]: White
Contents (HPLC area normalization method) [1, 6]: 99.95%
Infrared absorption spectrum [1, 6]: Unchanged
PXRD [1, 6]: Unchanged
Related articles [1, 6]: 0.04%
Appearance [1, 7]: White
Contents (HPLC area normalization method) [1, 7]: 99.96%
Infrared absorption spectrum [1, 7]: Unchanged
PXRD [1, 7]: Unchanged
Related articles [1, 7]: 0.05%
Appearance [1, 8]: White
Contents (HPLC area normalization method) [1, 8]: 99.96%
Related articles [1, 8]: 0.04%
Appearance [1, 9]: White
Contents (HPLC area normalization method) [1, 9]: 99.96%
Infrared absorption spectrum [1, 9]: Unchanged
PXRD [1, 9]: Unchanged
Related articles [1, 9]: 0.04%
Appearance [1, 10]: White
Contents (HPLC area normalization method) [1, 10]: 99.96%
Infrared absorption spectrum [1, 10]: Unchanged
PXRD [1, 10]: Unchanged
Related articles [1, 10]: 0.04%
chemical stability (related articles and contents) [1, 11]: excellent chemical stability
crystal form stability (appearance, PXRD, infrared absorption spectrum) [1, 11]: stable
SMILES: CCCc1nn(C)c2c(=O)[nH]c(-c3cc(S(=O)(=O)N4C[C@@H](C)N[C@@H](C)C4)ccc3OCC)nc12 [Aildenafil citrate crystal form O]
capture incubation period shortened (castrated mice): 201%
capture times increased (castrated mice; within 30 min): 4.4 times
